Results taken from patent US6355799B1, “Substituted benzene compounds, process for their preparation, and herbicidal and defoliant compositions containing them” (ISK Americas Incorporated, priority 1997, dated 2002).

Tests used:
Type in all cases: in vivo
[1] = tested on: redroot pigweed (Amaranthus retroflexus, AMARE); test: Pre-emerge test, greenhouse herbicide activity screening; settings: rating scale 0-100, 14 days after application
In short: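 Compounds in acetone were track-sprayed at 187 l/ha, 15–1000 g ai/ha, onto sandy loam pots. Pre-emerge seeds were sown one day before spraying, with surface watering afterwards. Post-emerge plants were at the 2–3 leaf stage and sprayed with 0.25% v/v non-ionic surfactant. Injury was rated 0–100 at 14 days.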

[2] = tested on: barnyardgrass (Echinochloa crus-galli, ECHCG); test: as above; settings: rating scale 0-100, 14 days after application
In short: (§1)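 Fourteen days after spraying, crop and weed injury was graded visually from 0, no effect, to 100, every plant dead. Test substances were dissolved in acetone and applied at 15–1000 g ai/ha with a flat-fan nozzle. Application was either pre-emergence, one day after sowing, or post-emergence at the 2–3 leaf stage.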

[3] = tested on: common ragweed (Ambrosia artemisizfolia L., AMBEL); test: as above; settings: rating scale 0-100, 14 days after application
In short: as §1

[4] = tested on: green foxtail (Setaria viridis, SETVI); test: as above; settings: rating scale 0-100, 14 days after application
In short: as §1

[5] = tested on: ivyleaf morningglory (Ipomoea hederacea, IPOHE); test: as above; settings: rating scale 0-100, 14 days after application
In short: as §1

[6] = tested on: johnsongrass (Sorghum halepense, SORHA); test: as above; settings: rating scale 0-100, 14 days after application
In short: as §1

[7] = tested on: lambsquarters (Chenopodium album, CHEAL); test: as above; settings: rating scale 0-100, 14 days after application
In short: as §1

[8] = tested on: large crabgrass (Digitaria sanguinalis, DIGSA); test: as above; settings: rating scale 0-100, 14 days after application
In short: as §1

[9] = tested on: sicklepod (Cassia obtusifolia, CASOB); test: as above; settings: rating scale 0-100, 14 days after application
In short: as §1

[10] = tested on: velvetleaf (Abutilon theophrasti, ABUTH); test: as above; settings: rating scale 0-100, 14 days after application
In short: as §1

[11] = tested on: field corn (Zea mays L., var. Dekalb 535, CORN); test: Pre-emerge test, crop safety; settings: rating scale 0-100, 14 days after application
In short: (§2)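 Rating: 0–100 visual injury, 14 DAA. Application: acetone, 187 l/ha, 15–1000 g ai/ha, flat-fan track sprayer with nozzle 40–45 cm above soil or canopy. Post-emerge runs used 0.25% v/v surfactant on 2–3 leaf plants.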

[12] = tested on: upland rice (Oryza sp., var. Tebonnet, RICE); test: Pre-emerge test, crop safety; settings: rating scale 0-100, 14 days after application
In short: as §2

[13] = tested on: barnyardgrass (Echinochloa crus-galli, ECHCG); test: Post-emerge test, greenhouse herbicide activity screening; settings: rating scale 0-100 (0 no damage, 100 complete death), 14 days after application
In short: (§3)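 Applied at 15–1000 g ai/ha from acetone in 187 l/ha spray volume. Post-emergence applications included 0.25% v/v non-ionic surfactant and reached plants sown 8–21 days before. Pre-emergence applications were incorporated by surface watering. Efficacy or crop damage was rated on a 0–100 scale after 14 days.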

[14] = tested on: common ragweed (Ambrosia artemisizfolia L., AMBEL); test: as above; settings: rating scale 0-100 (0 no damage, 100 complete death), 14 days after application
In short: as §3

[15] = tested on: green foxtail (Setaria viridis, SETVI); test: as above; settings: rating scale 0-100 (0 no damage, 100 complete death), 14 days after application
In short: as §3

[16] = tested on: ivyleaf morningglory (Ipomoea hederacea, IPOHE); test: as above; settings: rating scale 0-100 (0 no damage, 100 complete death), 14 days after application
In short: as §3

[17] = tested on: lambsquarters (Chenopodium album, CHEAL); test: as above; settings: rating scale 0-100 (0 no damage, 100 complete death), 14 days after application
In short: as §3

[18] = tested on: large crabgrass (Digitaria sanguinalis, DIGSA); test: as above; settings: rating scale 0-100 (0 no damage, 100 complete death), 14 days after application
In short: as §3

[19] = tested on: redroot pigweed (Amaranthus retroflexus, AMARE); test: as above; settings: rating scale 0-100 (0 no damage, 100 complete death), 14 days after application
In short: as §3

[20] = tested on: sicklepod (Cassia obtusifolia, CASOB); test: as above; settings: rating scale 0-100 (0 no damage, 100 complete death), 14 days after application
In short: as §3

[21] = tested on: velvetleaf (Abutilon theophrasti, ABUTH); test: as above; settings: rating scale 0-100 (0 no damage, 100 complete death), 14 days after application
In short: as §3

[22] = tested on: field corn (Zea mays L., var. Dekalb 535, CORN); test: Post-emerge test, crop safety; settings: rating scale 0-100 (0 no damage, 100 complete death), 14 days after application
In short: as §1

[23] = tested on: upland rice (Oryza sp., var. Tebonnet, RICE); test: Post-emerge test, crop safety; settings: rating scale 0-100 (0 no damage, 100 complete death), 14 days after application
In short: as §1

CCCCOC(=O)C(Cl)Cc1c(OC)c(Cl)cc(F)c1-n1c(=O)cc(C(F)(F)F)n(C)c1=O (single isomer, unassigned) [14-9]
70: Pre-emerge herbicidal activity, phytotoxicity rating ECHCG ([2]; 250 g ai/ha) | Post-emerge Herbicidal Activity, phytotoxicity rating AMBEL ([14]; Rate 250 g ai/ha) | Post-emerge Herbicidal Activity, phytotoxicity rating ABUTH ([21]; Rate 63 g ai/ha) | Post-emerge phytotoxicity rating CORN (crop damage) ([22]; Rate 63 g ai/ha)
5: Pre-emerge phytotoxicity rating, crop damage RICE ([12]; 250 g ai/ha) | Post-emerge phytotoxicity rating RICE (crop damage) ([23]; Rate 63 g ai/ha)
100: Pre-emerge herbicidal activity, phytotoxicity rating AMARE ([1]; 250 g ai/ha) | Pre-emerge herbicidal activity, phytotoxicity rating DIGSA ([8]; 250 g ai/ha) | Post-emerge Herbicidal Activity, phytotoxicity rating ECHCG ([13]; Rate 250 g ai/ha) | Post-emerge Herbicidal Activity, phytotoxicity rating ABUTH ([21]; Rate 250 g ai/ha)
80: Pre-emerge herbicidal activity, phytotoxicity rating AMARE ([1]; 63 g ai/ha) | Post-emerge Herbicidal Activity, phytotoxicity rating IPOHE ([16]; Rate 250 g ai/ha)
99: Post-emerge Herbicidal Activity, phytotoxicity rating CHEAL ([17]; Rate 250 g ai/ha) | Post-emerge Herbicidal Activity, phytotoxicity rating AMARE ([19]; Rate 250 g ai/ha) | Post-emerge phytotoxicity rating CORN (crop damage) ([22]; Rate 250 g ai/ha)
60: Pre-emerge herbicidal activity, phytotoxicity rating CHEAL ([7]; 63 g ai/ha) | Post-emerge Herbicidal Activity, phytotoxicity rating SETVI ([15]; Rate 250 g ai/ha) | Post-emerge Herbicidal Activity, phytotoxicity rating CHEAL ([17]; Rate 63 g ai/ha)
98: Post-emerge Herbicidal Activity, phytotoxicity rating ECHCG ([13]; Rate 63 g ai/ha)
10: Post-emerge Herbicidal Activity, phytotoxicity rating AMBEL ([14]; Rate 63 g ai/ha)
90: Pre-emerge herbicidal activity, phytotoxicity rating CHEAL ([7]; 250 g ai/ha) | Pre-emerge herbicidal activity, phytotoxicity rating DIGSA ([8]; 63 g ai/ha) | Pre-emerge herbicidal activity, phytotoxicity rating ABUTH ([10]; 250 g ai/ha) | Post-emerge Herbicidal Activity, phytotoxicity rating AMARE ([19]; Rate 63 g ai/ha)
30: Pre-emerge herbicidal activity, phytotoxicity rating SORHA ([6]; 250 g ai/ha) | Post-emerge Herbicidal Activity, phytotoxicity rating SETVI ([15]; Rate 63 g ai/ha)
75: Pre-emerge phytotoxicity rating, crop damage CORN ([11]; 250 g ai/ha) | Post-emerge Herbicidal Activity, phytotoxicity rating DIGSA ([18]; Rate 63 g ai/ha) | Post-emerge Herbicidal Activity, phytotoxicity rating DIGSA ([18]; Rate 250 g ai/ha)
0: Pre-emerge herbicidal activity, phytotoxicity rating ECHCG ([2]; 63 g ai/ha) | Pre-emerge herbicidal activity, phytotoxicity rating AMBEL ([3]; 63 g ai/ha) | Pre-emerge herbicidal activity, phytotoxicity rating AMBEL ([3]; 250 g ai/ha) | Pre-emerge herbicidal activity, phytotoxicity rating SETVI ([4]; 63 g ai/ha) | Pre-emerge herbicidal activity, phytotoxicity rating IPOHE ([5]; 63 g ai/ha) | Pre-emerge herbicidal activity, phytotoxicity rating IPOHE ([5]; 250 g ai/ha) | Pre-emerge herbicidal activity, phytotoxicity rating SORHA ([6]; 63 g ai/ha) | Pre-emerge herbicidal activity, phytotoxicity rating CASOB ([9]; 63 g ai/ha) | Pre-emerge herbicidal activity, phytotoxicity rating CASOB ([9]; 250 g ai/ha) | Pre-emerge herbicidal activity, phytotoxicity rating ABUTH ([10]; 63 g ai/ha) | Pre-emerge phytotoxicity rating, crop damage CORN ([11]; 63 g ai/ha) | Pre-emerge phytotoxicity rating, crop damage RICE ([12]; 63 g ai/ha) | Post-emerge Herbicidal Activity, phytotoxicity rating IPOHE ([16]; Rate 63 g ai/ha) | Post-emerge Herbicidal Activity, phytotoxicity rating CASOB ([20]; Rate 63 g ai/ha) | Post-emerge Herbicidal Activity, phytotoxicity rating CASOB ([20]; Rate 250 g ai/ha)
20: Pre-emerge herbicidal activity, phytotoxicity rating SETVI ([4]; 250 g ai/ha) | Post-emerge phytotoxicity rating RICE (crop damage) ([23]; Rate 250 g ai/ha)
